From patent US20180021270A1, “METHODS FOR THE TREATMENT OF CANCER USING COENZYME Q10 IN COMBINATION WITH IMMUNE CHECKPOINT MODULATORS” (Berg LLC, priority 2016, published 2018)

Columns and labels:
[1] = tested on: CD3 positive murine T cells within Balb/c PBMCs; assay: Viability of murine CD3 positive T cells within PBMCs; assay type: cell-based, mouse; details: 0-800 μM, 24 hours, dose-dependent, non-stimulated and PHA-stimulated cells
Procedure: The effects of Coenzyme Q10 on murine immune cells were also evaluated to determine whether Coenzyme Q10 has similar effects as those described above for human immune cells. For example, the viability of murine CD3 positive T cells within PHA-stimulated or unstimulated Balb/c PBMCs was determined. Cells were concurrently treated with Coenzyme Q10 (0, 12.5, 50, 200, 400 or 800 μM) for 24 hours and analyzed by flow cytometry using surface marker antibody for αCD3 and viability stains Annexin V/7AAD. CD3 positive and CD3 negative cell populations were identified within total cell population excluding debris, and viability was determined by plotting Annexin V-FITC vs. 7AAD. Two experiments using two different pools of Balb/c PBMCs and one experiment using C57B1/6 PBMCs were conducted. As shown in FIGS. 21A and 21B, Coenzyme Q10 increased the viability of CD3 positive murine T cells in a dose-dependent manner for both non-stimulated and PHA-stimulated cells.

[2] = tested on: colon (HT29) cancer cells; assay: mRNA expression of PD1, PD-L1 and PD-L2 in cancer cells treated with Coenzyme Q10; assay type: cell-based, human; details: 50 μM Coenzyme Q10, relative to untreated cells (p<0.05; n=3)
Procedure: Levels of mRNA expression of the immune checkpoints PD1, PD-L1 and PD-L2 were determined in human breast (MDA-MB231), prostate (LnCAP), ovarian (SKOV-3), colon (HT29), lung (A549), liver (Huh-7), and pancreatic (MIA PaCa-2) cancer cells treated with 50 μM Coenzyme Q10, 100 μM Coenzyme Q10, or the IC50 of Coenzyme Q10 for each cell line.

[3] = tested on: tumor infiltrating lymphocytes (TILs) in murine Pan02 pancreatic tumors; assay: CD8 IHC pathological scoring of tumor infiltrating lymphocytes in Pan02 tumors; assay type: in vivo, mouse
Procedure: Tumor samples from mice with murine Pan02 tumors treated with different doses of Coenzyme Q10 were analyzed for the presence of tumor infiltrating lymphocytes (TILs). C57B1/6 female mice were inoculated with 3×10^7 Pan02 cells. When tumors reached a mean volume of 100 mm^3, animals were randomized into four groups and treated with vehicle control or Coenzyme Q10 (25, 50 or 100 mg/kg) twice daily for 21 days. At the end of the study, tumors were removed and subjected to IHC analysis for Tumor Infiltrating Lymphocytes (TILs) with CD8 staining. All slides were subjected to a pathological scoring. […] As shown in FIGS. 29A and 29B, Coenzyme Q10 increased TILs in a dose-dependent manner.

interferon-γ (IFN-γ) = assay: Cytokine ELISA in PBMC supernatants; assay type: cell-based, human; details: during PHA activation, various concentrations of Coenzyme Q10
Procedure: (§1) Cytokines were measured in the PBMCs according to the manufacturer's protocol for R&D Quantikine ELISA kits (R&D Systems, Inc., Minneapolis, Minn.) specific to each cytokine. PBMCs were collected from 3 donors (D003F, D004F and D005F).

IL-10 = assay: Cytokine ELISA in PBMC supernatants; assay type: cell-based, human; details: during PHA activation, various concentrations of Coenzyme Q10
Procedure: as §1

[4] = tested on: tumor associated macrophages (TAMs) in murine Pan02 pancreatic tumors; assay: F4/80 IHC pathological scoring of tumor associated macrophages in Pan02 tumors; assay type: in vivo, mouse
Procedure: Pancreatic tumor samples from mice treated with different doses of Coenzyme Q10 were analyzed for the presence of tumor associated macrophages (TAMs). TAMs are found in close proximity to or within tumors and support tumor growth. C57B1/6 female mice were inoculated with Pan02 cells. When tumors reached a mean volume of 100 mm^3, animals were randomized into four groups and treated with vehicle control or Coenzyme Q10 (25, 50 or 100 mg/kg) twice daily for 21 days. At the end of the study, tumors were removed and subjected to immunohistochemistry (IHC) analysis for TAMs using the F4/80 marker. All slides were subjected to a pathological scoring. […] As shown in FIGS. 28A and 28B, Coenzyme Q10 decreased TAMs in a dose dependent manner.

[5] = tested on: PD-L1 protein on the surface of breast cancer cells (MDA-MB231); assay: Flow cytometry of PD-L1 protein on the cancer cell surface; assay type: cell-based, human
Procedure: Flow cytometry analysis with a fluorescent probe for PD-L1 was used to determine the expression of PD-L1 protein on the surface of various human cancer cell lines. The cells were treated with 100 μM Coenzyme Q10, or the IC50 of Coenzyme Q10 for each cell line. […] The increased PD-L1 levels observed in breast cancer cells in response to Coenzyme Q10 treatment were not due to changes in cell populations.

[6] = tested on: mouse syngeneic tumor cell lines (LL2, Hepa1-6, B16F10, CT26, EMT6/P, Renca); assay: Cell viability (CellTiter-Fluor), all six mouse syngeneic tumor cell lines; assay type: cell-based; details: 0-25 mM, 72 hours, dose dependent
Procedure: The sensitivity of mouse syngeneic tumor cell lines to Coenzyme Q10 was evaluated in vitro. Six mouse syngeneic tumor cell lines from different tissue types were exposed to increasing concentrations of Coenzyme Q10 (0-25 mM) at 37° C. for 72 hours. Cell viability was measured using CellTiter-Fluor kit (Promega, Madison, Wis.). Graphs and IC50 values were calculated using GraphPad Prism using data for at least three independent experiments. Mouse syngeneic tumor cell lines evaluated were Lewis lung carcinoma (LL2), hepatoma (Hepa1-6) skin melanoma (B16F10), colon cancer (CT26), mammary gland adenocarcinoma (EMT6/P), and renal adenocarcinoma (Renca). As shown in FIGS. 24A-24F, Coenzyme Q10 reduced viability of all of the tumor cell lines in a dose dependent manner.

[7] = 25 mg/kg twice daily for 21 days
[8] = 50 mg/kg twice daily for 21 days
[9] = 100 mg/kg twice daily for 21 days

`COC1=C(OC)C(=O)C(C/C=C(\C)CC/C=C(\C)CC/C=C(\C)CC/C=C(\C)CC/C=C(\C)CC/C=C(\C)CC/C=C(\C)CC/C=C(\C)CC/C=C(\C)CCC=C(C)C)=C(C)C1=O` [Coenzyme Q10] was tested, and the “Viability of CD3 positive murine T cells” value [1] was “increased”, the “PD-L1 mRNA expression” value [2] was “significant increase” and the “Percentage of mice with TIL levels Higher than Control” value [3, 7] was 40%. The “Percentage of mice with TIL levels Lower than Control” value [3, 7] was 10%, the “Percentage of mice with TIL levels Similar to Control” value [3, 7] was 50% and the “Percentage of mice with TIL levels Higher than Control” value [3, 8] was 42.9%. The “Percentage of mice with TIL levels Lower than Control” value [3, 8] was 28.6%, the “Percentage of mice with TIL levels Similar to Control” value [3, 8] was 28.6% and the “Percentage of mice with TIL levels Higher than Control” value [3, 9] was 55.2%. The “Percentage of mice with TIL levels Lower than Control” value [3, 9] was 33.3%, the “Percentage of mice with TIL levels Similar to Control” value [3, 9] was 11.1% and the “Tumor infiltrating lymphocytes (TILs) in tumors” value ([3]; 25, 50 or 100 mg/kg twice daily for 21 days, dose-dependent) was “increased”. The “IFN-γ level in supernatant” value (interferon-γ (IFN-γ)) was “increased”, the “IL-10 level in supernatant” value (IL-10) was “dose-dependently decreased” and the “Percentage of mice with TAM levels Higher than Control” value [4, 7] was 0%. The “Percentage of mice with TAM levels Lower than Control” value [4, 7] was 20%, the “Percentage of mice with TAM levels Similar to Control” value [4, 7] was 80% and the “Percentage of mice with TAM levels Higher than Control” value [4, 8] was 0%. For the same molecule, the “Percentage of mice with TAM levels Lower than Control” value [4, 8] was 85.8%, the “Percentage of mice with TAM levels Similar to Control” value [4, 8] was 14.3% and the “Percentage of mice with TAM levels Higher than Control” value [4, 9] was 0%. The “Percentage of mice with TAM levels Lower than Control” value [4, 9] was 44.4%, the “Percentage of mice with TAM levels Similar to Control” value [4, 9] was 55.6% and the “Tumor associated macrophages (TAMs) in tumors” value ([4]; 25, 50 or 100 mg/kg twice daily for 21 days) was “decreased”. The “Amount of PD-L1 protein on the cell surface” value ([5]; MDA-MB231, 3 hours after treatment) was “significantly increased”, the “Amount of PD-L1 protein on the cell surface, treated vs untreated” value ([5]; MDA-MB231, 6 hours after treatment) was “no significant difference” and the “Amount of PD-L1 protein on the cell surface” value ([5]; MDA-MB231, 72 hours after treatment) was “significantly increase”. The “Percentage of cells having PD-L1 protein on their surface” value ([5]; MDA-MB231, 72 hours after treatment, 100 μM or IC50 of Coenzyme Q10) was “did not significantly change”, the “Cell populations, treated vs untreated cells” value ([5]; MDA-MB231, flow cytometry) was “no changes” and the “Viability of all of the tumor cell lines” value [6] was “reduced”.
